Laboratory results reported in patent US20120149026A1, “INSULIN RESISTANCE MARKER” (SHIMADZU CORPORATION, priority 2009, published 2012).

B1: proepithelin protein: epithelin precursor protein having seven kinds of epithelin domains; purchased from AdipoGen, Inc. (protein)
chain: MWTLVSWVALTAGLVAGTRCPDGQFCPVACCLDPGGASYSCCRPLLDKWPTTLSRHLGGPCQVDAHCSAGHSCIFTVSGTSSCCPFPEAVACGDGHHCCPRGFHCSADGRSCFQRSGNNSVGAIQCPDSQFECPDFSTCCVMVDGSWGCCPMPQASCCEDRVHCCPHGAFCDLVHTRCITPTGTHPLAKKLPAQRTNRAVALSSSVMCPDARSRCPDGSTCCELPSGKYGCCPMPNATCCSDHLHCCPQDTVCDLIQSKCLSKENATTDLLTKLPAHTVGDVKCDMEVSCPDGYTCCRLQSGAWGCCPFTQAVCCEDHIHCCPAGFTCDTQKGTCEQGPHQVPWMEKAPAHLSLPDPQALKRDVPCDNVSSCPSSDTCCQLTSGEWGCCPIPEAVCCSDHQHCCPQGYTCVAEGQCQRGSEIVAGLEKMPARRASLSHPRDIGCDQHTSCPVGQTCCPSLGGSWACCQLPHAVCCEDRQHCCPAGYTCNVKARSCEKEVVSAQPATFLARSPHVGVKDVECGEGHFCHDNQTCCRDNRQGWACCPYRQGVCCADRRHCCPAGFRCAARGTKCLRREAPRWDAPLRDPALRQLL
modifications: human

Assays:
Format in all cases: cell-based, mouse
[1] = system: proepithelin (aa297-309); assay: Expression variation analysis of proepithelin protein by NBS method in insulin resistance-induced adipocytes; conditions: matured 3T3-L1 adipocytes; 4 ng/mL TNFα for four days or 20 nM dexamethazone for eight days; p-value <0.05
Experimental: Mouse 3T3-L1 cells (ATCC No. CCL-92.1.) were added with Dulbecco's modified Eagle's medium—low glucose (Wako Pure Chemical Industries, Ltd.), 10% bovine serum (GIBCO BRL), and a penicillin/streptomycin solution (GIBCO BRL), and cultured at 37° C. in 5% carbon dioxide.
After reaching confluent, the cells were further cultured for two days. Then the medium was replaced by a differentiation inducing medium. As the differentiation inducing medium, Dulbecco's modified Eagle's medium—high glucose (Wako Pure Chemical Industries, Ltd.) added with 10% fetal bovine serum, a penicillin/streptomycin solution (GIBCO BRL), 0.5 mM 1-methyl-3-isobutylxanthine, 1 μM dexamethazone, and 5 μg/mL insulin was used.
After three days, the medium was replaced by Dulbecco's modified Eagle's medium—high glucose (Wako Pure Chemical Industries, Ltd.), 10% fetal bovine serum, a penicillin/streptomycin solution (GIBCO BRL), and 5 μg/mL insulin, and cultured for two days. […]
For the obtained digests, a treatment was conducted according to the protocol of the NBS labeling kit, and the NBS-labeled peptide was concentrated. […] Comparative quantification analysis between 12C-NBS-labeled peptide and 13C-NBS-labeled peptide was conducted from the results obtained by automatic analysis of MALDI-TOF MS (AXIMA-CFR Plus; SHIMADZU CORPORATION) by using pair peak analyzing software (TWIP). […]

[2] = system: proepithelin protein; assay: Analysis of proepithelin protein by Western blotting in insulin resistance-induced adipocytes; conditions: matured 3T3-L1 adipocytes; for expression amount of proepithelin protein relative to GADPH, increase versus control: 4 ng/mL TNFα for four days or 20 nM dexamethazone for eight days, p-value <0.05
Experimental: Using the matured adipocyte at the eighth or later day after the differentiation inducing treatment, the cells were cultured in an adipocyte maintenance medium added with 20 nM dexamethazone for eight days to induce insulin resistance, and an adipocyte in which insulin resistance was induced by dexamethazone was obtained. On the other hand, using the matured adipocyte at the eighth or later day after the differentiation inducing treatment, the cells were cultured for four days in an adipocyte maintenance medium added with 4 ng/mL TNFα to induce insulin resistance, and an adipocyte in which insulin resistance was induced by TNFα was obtained.
A matured adipocyte in which insulin resistance was induced by the method of Reference Example 2 was solubilized in a TNE buffer (1% (w/w) Nonidet P-40, 150 mM sodium chloride, 20 mM Tris-hydrochloride (pH 7.4), 2 mM EDTA, 10 μg/mL leupeptin, 10 μg/mL aprotinine, 5 mM mercaptoethanol, 1 mM: PMSF, 1 mM Na3VO4, 10 μM sodium molybdate, and 50 mM sodium fluoride), and a protein was extracted. The extracted protein was separated by SDS-polyacrylamide gel electrophoresis (SDS-PAGE), and then transferred to a polyvinylidene fluoride (PVDF) membrane or a nitrocellulose membrane. A goat anti-proepithelin antibody (R&D Systems) was used as a primary antibody, a rabbit anti-goat IgG HRP-labeled antibody (ZYMED) was used as a secondary antibody, and ECL Blotting Detection Reagents (GE Healthcare) were used for detection of an HRP-labeled antibody.
The result obtained in this example (analytical result of a proepithelin protein by the Western blotting method) is shown in FIG. 2. In FIG. 2A, the vertical axis represents a relative value of an expression amount of a proepithelin protein, relative to an expression amount of a house keeping protein GADPH, and for each of a control (Control), the adipocyte in which insulin resistance was induced by TNFα (TNFα), and the adipocyte in which insulin resistance was induced by dexamethazone (Dex), the relative value is shown (mean value±standard deviation (mean±S.D.), n=4, p-value: **<0.05). […]

[3] = system: pAkt-Ser473; assay: Effect of proepithelin protein on insulin signaling (Akt phosphorylation, Western blotting); conditions: matured 3T3-L1 adipocytes; proepithelin 10, 50, 100, 200 nM, cultured for 30 minutes, with or without 100 nM insulin; FIG. 6
Experimental: A matured adipocyte prepared according to the method of Reference Example 1 was added with 100 nM insulin and a proepithelin protein (AdipoGen, Inc.) and cultured for 30 minutes, or added with 100 nM insulin without addition of proepithelin protein and cultured for 30 minutes to prepare an adipocyte (+100 nM Insulin) stimulated by insulin. When the proepithelin protein was added, concentrations of the proepithelin protein were 10 nM, 50 nM, 100 nM, and 200 nM.
The obtained adipocyte stimulated by insulin was solubilized in an RIPA buffer {1% (W/w) Triton X-100, 1% sodium deoxycholate, 0.1% sodium dodecylsulfate, 150 mM sodium chloride, 20 mM Tris-hydrochloride (pH7.4), 2 mM EDTA, 10 μg/mL leupeptin, 10 μg/mL aprotinin, 5 mM mercaptoethanol, 1 mM PMSF, 1 mM Na3VO4, 10 μM sodium molybdate, 50 mM sodium fluoride}, and proteins were extracted.
The extracted proteins were subjected to the Western blotting method. Concretely, following separation by SDS-polyacrylamide gel electrophoresis (SOS-PAGE), the protein was transferred to a polyvinylidene fluoride (PVDF) membrane or a nitrocellulose membrane. […]

[4] = system: phosphorylated Akt; assay: Insulin signaling-suppressing action by constant presence of proepithelin protein (Akt phosphorylation, Western blotting); conditions: matured 3T3-L1 adipocytes; proepithelin 50, 100, 200 nM for 6 hours, then 100 nM insulin for 30 minutes; FIG. 7
Experimental: A matured adipocyte prepared according to the method of Reference Example 1 was added with a proepithelin protein (AdipoGen, Inc.) and incubated for 6 hours, and then added with 100 nM insulin and cultured for 30 minutes, or added with 100 nM insulin without addition of a proepithelin protein, and cultured for 30 minutes, to prepare an adipocytes stimulated by insulin (+100 nM Insulin). When the proepithelin protein was added, concentrations of the proepithelin protein were set at 50 nM, 100 nM, and 200 nM.
A matured adipocyte prepared according to the method of Reference Example 1 was added with a proepithelin protein (AdipoGen, Inc.) and cultured for 6 hours, or cultured for 30 minutes without addition of both insulin and a proepithelin protein, to prepare an adipocyte not stimulated with insulin (−Insulin). When the proepithelin protein was added, concentrations of the proepithelin protein were set at 50 nM, 100 nM, and 200 nM.
For each of the adipocyte stimulated by insulin (+100 nM Insulin) and the adipocyte not stimulated by insulin (−Insulin) obtained in the manner as described above, protein extraction and Western blotting were conducted in the same manner as in Example 6.

Molecule	relative intensity of proepithelin (aa297-309) NBS-labeled peptide, insulin resistance adipocyte relative to normal adipocyte [1] [times]	expression amount of proepithelin protein relative to GADPH, increase versus control [2] [times]	upregulation of proepithelin protein with varied inducer concentration ([2]; concentrations of TNFα (ng/ml) and dexamethazone (nM) changed, FIG. 3)	phosphorylation level at 473th serine in the Akt protein [3]	phosphorylation level of an Akt protein after preliminary treatment [4]
C[C@@H]1C[C@H]2[C@@H]3CCC4=CC(=O)C=C[C@]4(C)[C@@]3(F)[C@@H](O)C[C@]2(C)[C@@]1(O)C(=O)CO [dexamethazone]	3.01	1.95			
tumor necrosis factor α [TNFα]	1.66	1.83	dependent on the concentration		
B1				increased with the concentration of added proepithelin	decreased
